Test system: human colon carcinoma cell strain WiDr
Assay: Microarray analysis (Human Genome U133 plus 2.0 array) of mRNA expression in WiDr cells treated with compound A
Type: cell-based
Details: 2.8 nM, 6 h, ratio to control
Method: Microarray analysis (Human Genome U133 plus 2.0 array: Affymetrix) was carried out using RNA purified from human colon carcinoma cell strain WiDr treated with 2.8 nM and 14 nM of (8E,12E,14E)-7-((4-Cycloheptylpiperazin-1-yl)carbonyl)oxy-3,6,16,21-tetrahydroxy-6,10,12,16,20-pentamethyl-18,19-epoxytricosa-8,12,14-trien-11-olide (hereinafter also referred to as “compound A”) for six hours.
WiDr cells were first suspended in RPMI1640 medium (containing 10% FBS, penicillin, and streptomycin) and seeded in a 10 cm dish (2×10^6 cells/dish). After an overnight culture in an incubator with 5% carbon dioxide gas at 37° C., the medium was changed with medium containing 2.8 nM and 14 nM of compound A or containing vehicle alone. After cultured additional six hours, TRI reagent (SIGMA) was added to cells, and the cells were harvested. RNA was purified in accordance with the protocol of TRI reagent, followed by further purification with RNeasy (QIAGEN). Absorbance at 260 nm was measured to quantify an amount of RNA.
Subsequently, single stranded cDNA synthesis, double stranded cDNA synthesis, biotin-labeled cRNA synthesis, and cRNA fragmentation in order were carried out from 5-10 μg (WiDr 10 μg, PBMC 5 μg) of total RNA from the control cells and the treated cells, by using One-Cycle Target Labeling and Control Reagents (Affymetrix). cRNA probe was used for hybridization with Human Genome U133 Plus 2.0 Array (Affymetrix). The array was then washed and stained, and luminescence intensity was measured by a scanner.
The RMA method was applied to 33 of .cel files obtained in the microarray experiment and log signal intensity at a gene level normalized with log signal intensity at a probe level was obtained. By subtracting the mean between control 1 and control 3 from the mean between log signal intensity 1 and log signal intensity 3 for each case, the log signal intensity was converted into a log signal ratio to the control. A t-test was conducted between each log signal intensity and control, and candidate genes were narrowed down in the basis of a p-value, a log signal ratio, and a signal value. Specifically, genes showing that the P value was 5% or less; the expression level in the untreated (control) is 100 or more by signal value; and the expression level when treated with both 2.8 nM and 14 nM of compound A is, compared to the control, 25% or less, were picked out. The software used is R2.2.1 (http://www.r-project.org/), affy package 1.8.1 (http://www.bioconductor.org).
Genes showing that, by the treatment with compound A, the P value was 5% or less; the expression level in the untreated (control) is 100 or more by signal value; and the expression level when treated with both 2.8 nM and 14 nM of compound A is, compared to the control, 25% or less, and results thereof were shown in Table 1. Probe ID used in Table 1 represents Human Genome U133 Plus 2.0 Array Probeset ID. In Table 1, for each gene evaluated, gene name (Gene Name), abbreviated name (Gene Symbol), accession number (Accession), alias name (Synonym), Probe set number in Human Genome U133 Plus 2.0 Array (Human Genome U133 Plus 2.0 Array Probeset ID), the expression level upon the six-hour treatment with 2.8 nM of E7107 (2.8 nM (6 h)), and the expression level upon the six-hour treatment with 14 nM of E7107 (14 nM (6 h)) were respectively shown.

## CCC(O)C(C)C1OC1CC(C)(O)/C=C/C=C(\C)C1OC(=O)CC(O)CCC(C)(O)C(OC(=O)N2CCN(C3CCCCCC3)CC2)/C=C/C1C (stereo not drawn) [E7107, (8E,12E,14E)-7-((4-Cycloheptylpiperazin-1-yl)carbonyl)oxy-3,6,16,21-tetrahydroxy-6,10,12,16,20-pentamethyl-18,19-epoxytricosa-8,12,14-trien-11-olide]
  ADPRHL2 mRNA expression level (223097_at): 0.23
  ANGEL2 mRNA expression level (221825_at): 0.22
  ARMC8 mRNA expression level (203486_s_at): 0.20
  ATP2A2 mRNA expression level (212361_s_at): 0.24
  ATP2B1 mRNA expression level (212930_at): 0.20
  ATP6V0A2 mRNA expression level (205704_s_at): 0.17
  BPTF mRNA expression level (232909_s_at): 0.20
  C1orf63 mRNA expression level (209006_s_at): 0.15
  C1orf79 mRNA expression level (223774_at): 0.16
  C1orf82 mRNA expression level (222893_s_at): 0.20
  C5orf28 mRNA expression level (219029_at): 0.20
  C6orf136 mRNA expression level (227455_at): 0.23
  C7orf23 mRNA expression level (204215_at): 0.12
  C7orf36 mRNA expression level (223433_at): 0.16
  C7orf49 mRNA expression level (220949_s_at): 0.20
  C12orf32 mRNA expression level (225837_at): 0.19
  C15orf40 mRNA expression level (1552310_at): 0.17
  C17orf80 mRNA expression level (223351_at): 0.22
  C20orf112 mRNA expression level (225224_at): 0.24
  CARD10 mRNA expression level (210026_s_at): 0.23
  CASC5 mRNA expression level (228323_at): 0.24
  CCDC14 mRNA expression level (225017_at): 0.21
  CCNE2 mRNA expression level (205034_at): 0.22
  CDC6 mRNA expression level (203967_at): 0.13
  CDC7 mRNA expression level (204510_at): 0.18
  CDNA FLJ34214 fis, clone FCBBF3021807 mRNA expression level (227087_at): 0.24
  CLDND1 mRNA expression level (208925_at): 0.16
  CLIP1 mRNA expression level (201975_at): 0.24
  DAPK1 mRNA expression level (203139_at): 0.09
  DNAJC16 mRNA expression level (212908_at): 0.24
  E2F7 mRNA expression level (228033_at): 0.22
  EHBP1 mRNA expression level (212653_s_at): 0.16
  ELL3 mRNA expression level (219518_s_at): 0.24
  ERCC3 mRNA expression level (202176_at): 0.25
  EVI1 mRNA expression level (226420_at): 0.17
  FAM86C mRNA expression level (65585_at): 0.19
  FANCL mRNA expression level (218397_at): 0.15
  FBXL5 mRNA expression level (209004_s_at): 0.19
  FCHO2 mRNA expression level (228220_at): 0.24
  FGF19 mRNA expression level (223761_at): 0.10
  FKSG44 mRNA expression level (227964_at): 0.11
  FLJ20628 mRNA expression level (221229_s_at): 0.16
  FRY mRNA expression level (204072_s_at): 0.23
  Full-length cDNA clone CS0DL007YI24 of B cells (Ramos cell line) mRNA expression level (226648_at): 0.22
  GRHL1 mRNA expression level (222830_at): 0.24
  HDAC4 mRNA expression level (204225_at): 0.21
  INTS7 mRNA expression level (222250_s_at): 0.24
  IREB2 mRNA expression level (225892_at): 0.12
  IXL mRNA expression level (225708_at): 0.20
  JAGN1 mRNA expression level (223104_at): 0.15
  JUB mRNA expression level (225806_at): 0.25
  KCNE3 mRNA expression level (227647_at): 0.20
  KIAA0323 mRNA expression level (212355_at): 0.23
  KIAA0776 mRNA expression level (212633_at): 0.18
  KIAA0859 mRNA expression level (212405_s_at): 0.17
  KIF2C mRNA expression level (211519_s_at): 0.20
  KIF21A mRNA expression level (226003_at): 0.18
  KIN mRNA expression level (205664_at): 0.22
  KLHL12 mRNA expression level (225068_at): 0.20
  LIPG mRNA expression level (219181_at): 0.21
  LOC51315 mRNA expression level (218303_x_at): 0.11
  LOC124512 mRNA expression level (225808_at): 0.15
  MASTL mRNA expression level (228468_at): 0.23
  MCM10 mRNA expression level (220651_s_at): 0.11
  METTL3 mRNA expression level (209265_s_at): 0.24
  METTL4 mRNA expression level (219698_s_at): 0.22
  MKRN1 mRNA expression level (201285_at): 0.20
  MLL2 mRNA expression level (227527_at): 0.21
  MND1 mRNA expression level (223700_at): 0.17
  MYOHD1 mRNA expression level (225947_at): 0.20
  NCOA5 mRNA expression level (225145_at): 0.20
  NIN mRNA expression level (225921_at): 0.22
  NOC3L mRNA expression level (218889_at): 0.23
  NPC1 mRNA expression level (202679_at): 0.24
  NR2C1 mRNA expression level (204791_at): 0.15
  NUPL1 mRNA expression level (223984_s_at): 0.12
  NUPL2 mRNA expression level (204003_s_at): 0.21
  ORC5L mRNA expression level (204957_at): 0.23
  PAXIP1 mRNA expression level (212825_at): 0.23
  PCGF1 mRNA expression level (210023_s_at): 0.21
  PHACTR4 mRNA expression level (226823_at): 0.25
  PHF20L1 mRNA expression level (226942_at): 0.24
  PIK3C3 mRNA expression level (204297_at): 0.23
  PLEKHA5 mRNA expression level (220952_s_at): 0.16
  PMS1 mRNA expression level (213677_s_at): 0.22
  POLD3 mRNA expression level (212836_at): 0.16
  POLR3E mRNA expression level (222490_at): 0.18
  PPM1B mRNA expression level (209296_at): 0.24
  PPWD1 mRNA expression level (213483_at): 0.21
  RAD54B mRNA expression level (219494_at): 0.18
  RBBP6 mRNA expression level (212783_at): 0.17
  RBM17 mRNA expression level (224780_at): 0.21
  RBMS1 mRNA expression level (209868_s_at): 0.17
  REPS1 mRNA expression level (224366_s_at): 0.22
  RFC4 mRNA expression level (204023_at): 0.13
  RIF1 mRNA expression level (226821_at): 0.13
  RPS6KC1 mRNA expression level (218909_at): 0.23
  SFXN1 mRNA expression level (230069_at): 0.17
  SHPRH mRNA expression level (226366_at): 0.19
  SLC17A5 mRNA expression level (223441_at): 0.24
  SLC25A19 mRNA expression level (223222_at): 0.25
  SLC37A1 mRNA expression level (218928_s_at): 0.22
  SMEK2 mRNA expression level (226230_at): 0.19
  SMUG1 mRNA expression level (218685_s_at): 0.24
  STAMBPL1 mRNA expression level (227606_s_at): 0.19
  STXBP3 mRNA expression level (203310_at): 0.19
  SYTL2 mRNA expression level (232914_s_at): 0.18
  TAF4 mRNA expression level (213090_s_at): 0.21
  TMEM177 mRNA expression level (218897_at): 0.24
  TNS3 mRNA expression level (217853_at): 0.20
  TRIM31 mRNA expression level (210159_s_at): 0.25
  TRIP4 mRNA expression level (203732_at): 0.21
  TSEN2 mRNA expression level (219581_at): 0.13
  TTC4 mRNA expression level (46167_at): 0.22
  TUBGCP3 mRNA expression level (203690_at): 0.16
  Transcribed locus mRNA expression level (230098_at): 0.17
  Transcribed locus mRNA expression level (230177_at): 0.18
  Transcribed locus mRNA expression level (235609_at): 0.21
  Transcribed locus, moderately similar to XP_518244.1 mRNA expression level (235046_at): 0.11
  Transcribed locus, strongly similar to NP_002194.1 integrin alpha 2 precursor mRNA expression level (227314_at): 0.24
  Transcribed locus, strongly similar to NP_689873.1 mRNA expression level (228638_at): 0.16
  UNC50 mRNA expression level (203583_at): 0.10
  WBP4 mRNA expression level (203598_s_at): 0.17
  WDR26 mRNA expression level (218107_at): 0.24
  WDR67 mRNA expression level (214061_at): 0.09
  ZC3HAV1L mRNA expression level (228280_at): 0.23
  ZCCHC6 mRNA expression level (220933_s_at): 0.18
  ZKSCAN1 mRNA expression level (214670_at): 0.21
  ZMIZ1 mRNA expression level (212124_at): 0.16
  ZNF518 mRNA expression level (204291_at): 0.18
  mRNA expression level, probeset 228106_at (gene name not given): 0.21
  mRNA expression level, probeset 235436_at (gene name not given): 0.21

— patent publication US20100086931A1, “METHOD FOR ASSAYING ACTION OF ANTITUMOR AGENT USING DECREASE IN GENE EXPRESSION LEVEL AS INDEX” (Eisai R&D Management Co., Ltd., priority 2007, published 2010)
